By EC50 is commonly meant the concentration that produces a half-maximal response.

For this assay, the target named is T1, APJ Receptor (Homo sapiens, UniProt P35414).
T1 sequence (P35414 1-380): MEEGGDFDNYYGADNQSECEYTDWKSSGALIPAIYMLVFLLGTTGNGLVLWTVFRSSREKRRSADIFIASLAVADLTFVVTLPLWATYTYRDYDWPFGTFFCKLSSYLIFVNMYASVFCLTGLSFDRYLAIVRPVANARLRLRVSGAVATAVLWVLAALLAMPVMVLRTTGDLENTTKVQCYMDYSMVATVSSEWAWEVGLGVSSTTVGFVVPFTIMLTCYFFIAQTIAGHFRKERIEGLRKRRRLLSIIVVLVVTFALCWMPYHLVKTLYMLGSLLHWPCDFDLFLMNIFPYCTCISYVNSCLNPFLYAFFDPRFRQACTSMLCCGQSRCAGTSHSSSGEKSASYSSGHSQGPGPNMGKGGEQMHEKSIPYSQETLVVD
Briefly: APJ cAMP assay (DiscoverX enzyme fragment complementation; inhibition of forskolin-stimulated cAMP). The format is cell-based. Conditions: CHO-K1 cell line stably expressing the APJ Receptor; EC80 forskolin; 30 minutes at 37° C.; read-out: Potency Range (APJ cAMP EC50). The text has this:
Activation of APJ receptor is known to inhibit forskolin-stimulated cyclic AMP (cAMP) production in cells in a pertussis toxin-sensitive manner which indicates primary coupling to the GαI subunit of the G protein heterotrimeric complex. In addition to signaling through G protein and inhibition of cAMP, APJ receptor activation also results in β-arrestin recruitment, receptor internalization and activation of extracellular-regulated kinases (ERKs).
In order to optimize functional activity directed toward Gi coupling we utilized a CHO-K 1 cell line developed by DiscoverX stably expressing the APJ Receptor. Cells expressing APJR receptor were plated in a 384-well microtiter plates and incubated overnight at 37° C. with 5% CO2 to allow the cells to attach and grow. Media was then aspirated from the cells and replaced with 15 uL 2:1 Hanks Balanced Salt Solution (HBSS)/10 mM Hepes:cAMP XS+Ab reagent. Five microliters (5 uL) of previously generated compound sample stocks at 4× final concentration in assay buffer containing 4× EC80 forskolin were then added to the cells and allowed to incubate at 37° C. for 30 minutes.
After incubation the assay signal was generated using a technology termed enzyme fragment complementation (EFC). In EFC the enzyme B-galactosidase is split into two complementary portions (EA and ED). The fragment ED is fused to cAMP and in the assay format competes with endogenous cAMP for binding to a cAMP specific antibody. Activated B-Gal is formed when exogenous EA fragment binds to free ED-cAMP (not bound to cAMP specific antibody). Activated enzyme levels are detected through conversion of B-gal chemiluminescent substrate which generates a detectable luminescence signal and read on standard microtiter plate.
The methodology for detection of cAMP using EFC requires incubation with 20 uL of cAMP XS+ED/CL lysis cocktail for one hour followed by incubation with 20 uL cAMP XS+EA reagent for three hours at room temperature. Microplates were read following signal generation with a PerkinElmer Envision instrument utilizing chemiluminescent signal detection.
Compound activity was analyzed using CBIS data analysis suite (ChemInnovation, CA). Percentage activity was calculated using the following formula: % Activity=100%×(1−(mean RLU of test sample−mean RLU of Max control)/(mean RLU of vehicle control−mean RLU of Max control))
In general terms: Changes in cAMP serve as a functional read-out for many G protein-coupled receptors.

In the case of `CCOc1cccc(-c2nc3nc(C)c(NS(C)(=O)=O)nc3n2-c2c(OC)cccc2OC)n1` [Example 87, N-(1-(2,6-Dimethoxyphenyl)-2-(6-ethoxypyridin-2-yl)-5-methyl-1H-imidazo[4,5-b]pyrazin-6-yl)methanesulfonamide], the EC50 lay in the range of 0.001 to 0.1 µM.

For `CCOc1cccc(-c2nc3ncc(NS(=O)(=O)CC4(O)CC4)nc3n2-c2c(OC)cccc2OC)n1` [Example 61, N-(1-(2,6-dimethoxyphenyl)-2-(6-ethoxypyridin-2-yl)-1H-imidazo[4,5-b]pyrazin-6-yl)-1-(1-hydroxycyclopropyl)methanesulfonamide], the EC50 was 0.001 to 0.1 µM. Turning to `CCOc1cccc(-c2nc3ncc(N)nc3n2-c2c(OC)cccc2OC)n1` [Example 10, 1-(2,6-dimethoxyphenyl)-2-(6-ethoxypyridin-2-yl)-1H-imidazo[4,5-b]pyrazin-6-amine], the EC50 fell in the range of 0.001 to 0.1 µM. Take `CCOc1cccc(-c2nc3nc(Cl)c(NS(=O)(=O)c4ccc(F)cn4)nc3n2-c2c(OC)cccc2OC)n1` [Example 99, N-(5-Chloro-1-(2,6-dimethoxyphenyl)-2-(6-ethoxypyridin-2-yl)-1H-imidazo[4,5-b]pyrazin-6-yl)-5-fluoropyridine-2-sulfonamide]: the EC50 lay in the range of 0.001 to 0.1 µM. As for `CCOc1cccc(-c2nc3nc(Cl)c(NS(=O)(=O)Cc4ncccn4)nc3n2-c2c(OC)cccc2OC)n1` [Example 109, N-(5-Chloro-1-(2,6-dimethoxyphenyl)-2-(6-ethoxypyridin-2-yl)-1H-imidazo[4,5-b]pyrazin-6-yl)-1-(pyrimidin-2-yl)methanesulfonamide], the EC50 lay in the range of 0.001 to 0.1 µM. As to `CCOc1cccc(-c2nc3ncc(NS(=O)(=O)c4cccnc4)nc3n2-c2c(OC)cccc2OC)n1` [Example 24, N-(1-(2,6-dimethoxyphenyl)-2-(6-ethoxypyridin-2-yl)-1H-imidazo[4,5-b]pyrazin-6-yl)pyridine-3-sulfonamide], the concentration giving a half-maximal response (EC50) is 0.001 to 0.1 µM.

With `CCOc1cccc(-c2nc3ncc(NS(=O)(=O)N4CCNCC4)nc3n2-c2c(OC)cccc2OC)n1` [Example 74, N-(1-(2,6-Dimethoxyphenyl)-2-(6-ethoxypyridin-2-yl)-1H-imidazo[4,5-b]pyrazin-6-yl)piperazine-1-sulfonamide], the EC50 lay in the range of 0.001 to 0.1 µM. With `CCOc1cccc(-c2nc3nc(Cl)c(NS(=O)(=O)Cc4ncc(C)cn4)nc3n2-c2c(OC)cccc2OC)n1` [Example 142, N-(5-Chloro-1-(2,6-dimethoxyphenyl)-2-(6-ethoxypyridin-2-yl)-1H-imidazo[4,5-b]pyrazin-6-yl)-1-(5-methylpyrimidin-2-yl)methanesulfonamide], the EC50 was below 0.001 µM. Under `CCOc1cccc(-c2nc3ncc(NS(=O)(=O)C4COC4)nc3n2-c2c(OC)cccc2OC)n1` [Example 30, N-(1-(2,6-dimethoxyphenyl)-2-(6-ethoxypyridin-2-yl)-1H-imidazo[4,5-b]pyrazin-6-yl)oxetane-3-sulfonamide] stands 0.001 to 0.1 µM; under `CC#CCS(=O)(=O)Nc1cnc2nc(-c3cccc(OCC)n3)n(-c3c(OC)cccc3OC)c2n1` [Example 82, N-(1-(2,6-Dimethoxyphenyl)-2-(6-ethoxypyridin-2-yl)-1H-imidazo[4,5-b]pyrazin-6-yl)but-2-yne-1-sulfonamide], 0.001 to 0.1 µM; under `CCOc1cccc(-c2nc3ncc(Br)nc3n2-c2c(OC)cccc2OC)n1` [Example 1, 6-bromo-1-(2,6-dimethoxyphenyl)-2-(6-ethoxypyridin-2-yl)-1H-imidazo[4,5-b]pyrazine], 0.1 to 10 µM. With `CCOc1cccc(-c2nc3ncc(NS(=O)(=O)CCC4CC4)nc3n2-c2c(OC)cccc2OC)n1` [Example 29, 2-cyclopropyl-N-(1-(2,6-dimethoxyphenyl)-2-(6-ethoxypyridin-2-yl)-1H-imidazo[4,5-b]pyrazin-6-yl)ethanesulfonamide], the EC50 was below 0.001 µM. As to `CCOc1cccc(-c2nc3ncc(NS(C)(=O)=O)nc3n2-c2c(OC)cccc2OC)n1` [Example 2, N-(1-(2,6-dimethoxyphenyl)-2-(6-ethoxypyridin-2-yl)-1H-imidazo[4,5-b]pyrazin-6-yl)methanesulfonamide], the EC50 lay in the range of 0.001 to 0.1 µM.

As to `CCOc1cccc(-c2nc3ncc(N(Cc4ccccc4)Cc4ccccc4)nc3n2-c2c(OC)cccc2OC)n1` [Example 11, N,N-dibenzyl-1-(2,6-dimethoxyphenyl)-2-(6-ethoxypyridin-2-yl)-1H-imidazo[4,5-b]pyrazin-6-amine], the EC50 lay within 0.001 to 0.1 µM. As to `CCOc1cccc(-c2nc3ncc(CCc4ccccc4)nc3n2-c2c(OC)cccc2OC)n1` [Example 7, 1-(2,6-dimethoxyphenyl)-2-(6-ethoxypyridin-2-yl)-6-phenethyl-1H-imidazo[4,5-b]pyrazine], the EC50 is 0.001 to 0.1 µM. Consider `CCOc1cccc(-c2nc3nc(Cl)c(NS(=O)(=O)Cc4ccccn4)nc3n2-c2c(OC)cccc2OC)n1` [Example 95, N-(5-Chloro-1-(2,6-dimethoxyphenyl)-2-(6-ethoxypyridin-2-yl)-1H-imidazo[4,5-b]pyrazin-6-yl)-1-(pyridin-2-yl)methanesulfonamide], for which the EC50 lay in the range of 0.001 to 0.1 µM. `CCOc1cccc(-c2nc3ncc(NS(C)(=O)=O)nc3n2-c2ncccc2OC)n1` [Example 49, N-(2-(6-ethoxypyridin-2-yl)-1-(3-methoxypyridin-2-yl)-1H-imidazo[4,5-b]pyrazin-6-yl)methanesulfonamide]: the half-maximal effective concentration (EC50) was in the range of 0.1 to 10 µM.

Take `CCOc1cccc(-c2nc3ncc(NS(C)(=O)=O)nc3n2C(CC)CC)n1` [Example 58, N-(2-(6-ethoxypyridin-2-yl)-1-(pentan-3-yl)-1H-imidazo[4,5-b]pyrazin-6-yl)methanesulfonamide]: the EC50 was in the range of 0.001 to 0.1 µM. Under `CCOc1cccc(-c2nc3nnc(NS(=O)(=O)c4ccc(F)cn4)cc3n2-c2c(OC)cccc2OC)n1` [Example 120, N-(7-(2,6-Dimethoxyphenyl)-8-(6-ethoxypyridin-2-yl)-7H-imidazo[4,5-c]pyridazinyl)-5-fluoropyridine-2-sulfonamide] stands below 0.001 µM; under `CCOc1cccc(-c2nc3ncc(NS(=O)(=O)N(C)C)nc3n2-c2c(OC)cccc2OC)n1` [Example 76, N-(1-(2,6-dimethoxyphenyl)-2-(6-ethoxypyridin-2-yl)-1H-imidazo[4,5-b]pyrazin-6-yl)-N′,N′-dimethylsulfamide], 0.001 to 0.1 µM. Take `CCOc1cccc(-c2nc3ncc(NCc4ccccc4)nc3n2-c2c(OC)cccc2OC)n1` [Example 13, N-benzyl-1-(2,6-dimethoxyphenyl)-2-(6-ethoxypyridin-2-yl)-1H-imidazo[4,5-b]pyrazin-6-amine]: the concentration for a half-maximal effect (EC50) lay in the range of 0.001 to 0.1 µM. Regarding `CCOc1cccc(-c2nc3nnc(NS(=O)(=O)N4CCOCC4)cc3n2-c2c(OC)cccc2OC)n1` [Example 121, N-(7-(2,6-Dimethoxyphenyl)-8-(6-ethoxypyridin-2-yl)-7H-imidazo[4,5-c]pyridazinyl)morpholine-4-sulfonamide], the EC50 was in the range of 0.001 to 0.1 µM.

Take `CCOc1cccc(-c2nc3nc(Cl)c(NS(=O)(=O)Cc4ccc(F)cn4)nc3n2-c2c(OC)cccc2OC)n1` [Example 96, N-(5-Chloro-1-(2,6-dimethoxyphenyl)-2-(6-ethoxypyridin-2-yl)-1H-imidazo[4,5-b]pyrazin-6-yl)-1-(5-fluoropyridin-2-yl)methanesulfonamide]: the EC50 was below 0.001 µM. On to `CCOc1cccc(-c2nc3ncc(NS(C)(=O)=O)cc3n2-c2c(OC)cccc2OC)n1` [Example 20, N-(1-(2,6-dimethoxyphenyl)-2-(6-ethoxypyridin-2-yl)-1H-imidazo[4,5-b]pyridin-6-yl)methanesulfonamide], for which the EC50 was in the range of 0.001 to 0.1 µM. With `CCOc1cccc(-c2nc3ncc(NS(=O)(=O)N4CCOCC4)nc3n2-c2c(OC)cccc2OC)n1` [Example 37, N-(1-(2,6-dimethoxyphenyl)-2-(6-ethoxypyridin-2-yl)-1H-imidazo[4,5-b]pyrazin-6-yl)morpholine-4-sulfonamide], the EC50 is below 0.001 µM. Under `COc1cccc(OC)c1-n1c(-c2cccc(OC(F)(F)F)n2)nc2ncc(NS(C)(=O)=O)nc21` [Example 56, N-(1-(2,6-dimethoxyphenyl)-2-(6-(trifluoromethoxy)pyridin-2-yl)-1H-imidazo[4,5-b]pyrazin-6-yl)methanesulfonamide] stands 0.1 to 10 µM.

Values taken from patent publication US11944622B2 (Annapurna Bio, Inc., priority 2018, dated 2024).
